From patent US20230066011A1, “PYRROLOPYRIMIDINE DERIVATIVE, AND PHARMACEUTICAL COMPOSITION FOR PREVENTING OR TREATING PROTEIN KINASE-RELATED DISEASE COMPRISING SAME AS ACTIVE INGREDIENT” (VORONOI CO., LTD., priority 2019, published 2023) come the findings set out here.

What all share (type): binding
One experiment addresses T1, CLK2 (Homo sapiens, UniProt P49760).
T1 construct: purchased DiscoverX Corp. (ScanMAX Kinase analysis panel, service)
Nature of the experiment: ScanMAX Kinase analysis panel, CLK2. The conditions noted are these: 1 μM in DMSO; <35% considered inhibitory; read-out: percent control (% control), CLK2. The protocol:
(§1) Specifically, the enzyme (kinase) selectivity of Example compounds 238, 361, 411, 157, 161, 228, and 158 selected from the Example compounds of the present invention was determined by commissioning DiscoverX Corp., and an experiment was performed using a ScanMAX™ Kinase analysis panel. In this case, a concentration of the drug with which the enzymes were treated was 1 μM in DMSO, and the percent control (% control) was defined in the same manner as in the following Expression 1.
(§2) (Example Compound−Positive Control)/(Negative Control−Positive Control)×100 [Expression 1]
(§3) wherein the positive control represents a compound having a percent control of 0%, and the negative control represents DMSO having a percent control of 100%. For the enzyme selectivity of the present invention, it was considered that the compound has an inhibitory activity on each of the enzymes when the percent control for the corresponding enzyme was <35% (i. e., less than 35%).

The next experiment concerns the target T2, CLK3 (Homo sapiens, UniProt P49761).
T2 construct: purchased DiscoverX Corp. (ScanMAX Kinase analysis panel, service)
Nature of the experiment: ScanMAX Kinase analysis panel, CLK3. As to conditions: 1 μM in DMSO; <35% considered inhibitory; read-out: percent control (% control), CLK3. The protocol:
as §1, §2, §3

Another experiment deals with T3, CSNK1D (Homo sapiens, UniProt P48730).
T3 construct: purchased DiscoverX Corp. (ScanMAX Kinase analysis panel, service)
Nature of the experiment: ScanMAX Kinase analysis panel, CSNK1D. As to conditions: 1 μM in DMSO; <35% considered inhibitory; read-out: percent control (% control), CSNK1D. As for the experimental part:
as §1, §2, §3

The target in a further experiment is T4, CSNK1E (Homo sapiens, UniProt P49674).
T4 construct: purchased DiscoverX Corp. (ScanMAX Kinase analysis panel, service)
Briefly: ScanMAX Kinase analysis panel, CSNK1E. As to conditions: 1 μM in DMSO; <35% considered inhibitory; read-out: percent control (% control), CSNK1E. As for the experimental part:
as §1, §2, §3

For another experiment, the target named is T5, DYRK1A (Homo sapiens, UniProt Q13627).
T5 construct: purchased DiscoverX Corp. (ScanMAX Kinase analysis panel, service)
Nature of the experiment: ScanMAX Kinase analysis panel, DYRK1A. As to conditions: 1 μM in DMSO; <35% considered inhibitory; read-out: percent control (% control), DYRK1A. As for the experimental part:
as §1, §2, §3

The next experiment has as its target T6, DYRK1B (Homo sapiens, UniProt Q9Y463).
T6 construct: purchased DiscoverX Corp. (ScanMAX Kinase analysis panel, service)
Nature of the experiment: ScanMAX Kinase analysis panel, DYRK1B. The conditions noted are these: 1 μM in DMSO; <35% considered inhibitory; read-out: percent control (% control), DYRK1B. As for the experimental part:
as §1, §2, §3

Another experiment has as its target T7, GAK (Homo sapiens, UniProt O14976).
T7 construct: purchased DiscoverX Corp. (ScanMAX Kinase analysis panel, service)
T7 sequence (O14976 1-1311): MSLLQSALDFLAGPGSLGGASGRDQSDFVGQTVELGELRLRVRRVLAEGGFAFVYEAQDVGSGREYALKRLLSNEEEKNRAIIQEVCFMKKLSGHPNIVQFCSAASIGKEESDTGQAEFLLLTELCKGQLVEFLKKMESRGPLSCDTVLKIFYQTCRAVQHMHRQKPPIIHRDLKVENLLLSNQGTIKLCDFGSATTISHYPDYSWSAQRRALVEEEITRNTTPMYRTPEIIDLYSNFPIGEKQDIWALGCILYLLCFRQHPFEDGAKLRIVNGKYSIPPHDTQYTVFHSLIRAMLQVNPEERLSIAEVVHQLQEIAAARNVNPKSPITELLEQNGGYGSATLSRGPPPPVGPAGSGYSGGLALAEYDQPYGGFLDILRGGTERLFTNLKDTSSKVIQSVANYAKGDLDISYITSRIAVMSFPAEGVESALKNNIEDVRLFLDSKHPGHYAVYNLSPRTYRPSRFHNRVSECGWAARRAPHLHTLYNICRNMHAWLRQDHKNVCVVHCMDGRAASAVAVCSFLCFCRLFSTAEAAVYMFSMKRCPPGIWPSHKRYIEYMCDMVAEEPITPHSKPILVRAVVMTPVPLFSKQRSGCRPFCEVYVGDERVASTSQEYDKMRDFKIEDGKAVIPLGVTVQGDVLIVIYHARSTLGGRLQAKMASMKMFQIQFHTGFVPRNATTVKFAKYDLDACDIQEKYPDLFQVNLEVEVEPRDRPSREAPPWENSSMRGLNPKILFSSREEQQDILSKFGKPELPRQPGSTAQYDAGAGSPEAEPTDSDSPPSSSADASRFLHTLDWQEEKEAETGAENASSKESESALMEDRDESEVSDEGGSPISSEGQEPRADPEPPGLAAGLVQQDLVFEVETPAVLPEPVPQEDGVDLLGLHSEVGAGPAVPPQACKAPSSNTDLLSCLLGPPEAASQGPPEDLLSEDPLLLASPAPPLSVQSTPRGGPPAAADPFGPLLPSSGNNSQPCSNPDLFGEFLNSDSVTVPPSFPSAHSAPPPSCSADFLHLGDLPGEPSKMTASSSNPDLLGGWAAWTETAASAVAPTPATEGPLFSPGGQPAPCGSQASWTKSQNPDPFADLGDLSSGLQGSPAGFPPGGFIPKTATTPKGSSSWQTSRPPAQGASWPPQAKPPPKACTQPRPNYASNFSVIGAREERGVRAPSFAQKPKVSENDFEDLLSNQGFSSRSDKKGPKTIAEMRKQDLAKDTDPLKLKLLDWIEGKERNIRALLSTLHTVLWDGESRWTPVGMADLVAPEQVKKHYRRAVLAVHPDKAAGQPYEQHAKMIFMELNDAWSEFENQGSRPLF
Briefly: ScanMAX Kinase analysis panel, GAK. As to conditions: 1 μM in DMSO; <35% considered inhibitory; read-out: percent control (% control), GAK. As for the experimental part:
as §1, §2, §3

The target in a further experiment is T8, PHKG1 (Homo sapiens, UniProt Q16816).
T8 construct: purchased DiscoverX Corp. (ScanMAX Kinase analysis panel, service)
Nature of the experiment: ScanMAX Kinase analysis panel, PHKG1. The conditions noted are these: 1 μM in DMSO; <35% considered inhibitory; read-out: percent control (% control), PHKG1. As for the experimental part: as §1, §2, §3

The target of a further experiment is T9, PYK2 (Homo sapiens, UniProt Q14289).
T9 construct: purchased DiscoverX Corp. (commissioned ScanMAX panel service)
Nature of the experiment: ScanMAX Kinase analysis panel, PYK2. As to conditions: 1 μM in DMSO; <35% considered inhibitory; read-out: percent control (% control), PYK2. As for the experimental part: as §1, §2, §3

For a further experiment, the target named is LRRK2 (Homo sapiens, UniProt Q5S007). Briefly: ScanMAX Kinase analysis panel, LRRK2. Also noted: purchased DiscoverX Corp. (ScanMAX Kinase analysis panel, service). As to conditions: 1 μM in DMSO; <35% considered inhibitory; read-out: percent control (% control), LRRK2. The protocol: as §1, §2, §3

T9 sequence (Q14289 whole entry): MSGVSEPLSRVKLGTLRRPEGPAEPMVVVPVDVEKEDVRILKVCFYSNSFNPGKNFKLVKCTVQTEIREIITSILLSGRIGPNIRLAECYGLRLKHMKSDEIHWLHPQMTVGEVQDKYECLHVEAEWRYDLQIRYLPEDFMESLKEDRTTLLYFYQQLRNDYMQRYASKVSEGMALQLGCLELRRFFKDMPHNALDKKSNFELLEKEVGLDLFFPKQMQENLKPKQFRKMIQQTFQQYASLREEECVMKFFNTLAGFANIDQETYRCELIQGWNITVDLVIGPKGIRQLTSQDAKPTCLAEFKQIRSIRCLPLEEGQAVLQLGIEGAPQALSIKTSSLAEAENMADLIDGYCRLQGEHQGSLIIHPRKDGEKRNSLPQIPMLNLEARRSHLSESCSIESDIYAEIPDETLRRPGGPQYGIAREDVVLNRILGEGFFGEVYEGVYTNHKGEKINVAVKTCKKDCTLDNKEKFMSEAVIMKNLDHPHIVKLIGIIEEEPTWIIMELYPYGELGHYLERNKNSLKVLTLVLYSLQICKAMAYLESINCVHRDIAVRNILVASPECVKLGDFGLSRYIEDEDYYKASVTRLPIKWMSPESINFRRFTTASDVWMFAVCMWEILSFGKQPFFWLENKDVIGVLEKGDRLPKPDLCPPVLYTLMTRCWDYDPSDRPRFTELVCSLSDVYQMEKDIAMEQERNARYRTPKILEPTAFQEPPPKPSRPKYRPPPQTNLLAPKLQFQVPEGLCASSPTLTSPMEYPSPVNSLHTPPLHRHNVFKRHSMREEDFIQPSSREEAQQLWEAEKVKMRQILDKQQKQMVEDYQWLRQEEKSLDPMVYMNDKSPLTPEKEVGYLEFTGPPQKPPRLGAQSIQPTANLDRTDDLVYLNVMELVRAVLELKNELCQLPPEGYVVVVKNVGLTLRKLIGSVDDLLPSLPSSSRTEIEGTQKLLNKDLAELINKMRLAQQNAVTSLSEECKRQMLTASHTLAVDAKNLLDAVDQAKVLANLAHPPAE
T6 sequence (Q9Y463 whole entry): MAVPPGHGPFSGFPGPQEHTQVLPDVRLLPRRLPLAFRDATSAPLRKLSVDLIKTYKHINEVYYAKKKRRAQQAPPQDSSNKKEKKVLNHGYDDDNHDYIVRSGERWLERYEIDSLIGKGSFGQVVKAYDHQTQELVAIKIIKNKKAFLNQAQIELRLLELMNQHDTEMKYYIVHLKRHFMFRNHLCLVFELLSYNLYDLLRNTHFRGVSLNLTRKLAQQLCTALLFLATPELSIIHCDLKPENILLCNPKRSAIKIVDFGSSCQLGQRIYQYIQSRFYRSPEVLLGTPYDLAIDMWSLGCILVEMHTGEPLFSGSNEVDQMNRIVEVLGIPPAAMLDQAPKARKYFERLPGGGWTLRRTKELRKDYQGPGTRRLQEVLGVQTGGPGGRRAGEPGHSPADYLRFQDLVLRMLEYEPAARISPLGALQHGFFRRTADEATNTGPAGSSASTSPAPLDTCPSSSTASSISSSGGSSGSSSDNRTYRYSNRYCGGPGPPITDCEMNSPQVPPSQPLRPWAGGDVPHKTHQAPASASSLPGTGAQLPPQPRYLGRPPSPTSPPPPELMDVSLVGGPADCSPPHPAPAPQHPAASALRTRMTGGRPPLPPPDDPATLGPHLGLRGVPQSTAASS
T4 sequence (P49674 whole entry): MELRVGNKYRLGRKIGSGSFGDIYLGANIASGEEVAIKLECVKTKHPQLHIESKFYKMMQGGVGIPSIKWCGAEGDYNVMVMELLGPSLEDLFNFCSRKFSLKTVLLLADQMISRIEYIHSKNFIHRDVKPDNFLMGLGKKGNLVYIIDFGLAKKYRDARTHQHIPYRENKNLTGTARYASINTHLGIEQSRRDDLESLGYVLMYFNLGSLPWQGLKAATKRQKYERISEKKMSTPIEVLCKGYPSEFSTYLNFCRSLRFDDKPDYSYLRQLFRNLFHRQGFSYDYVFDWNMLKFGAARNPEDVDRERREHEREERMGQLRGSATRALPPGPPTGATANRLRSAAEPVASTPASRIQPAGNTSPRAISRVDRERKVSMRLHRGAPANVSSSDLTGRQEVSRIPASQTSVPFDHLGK
T2 sequence (P49761 whole entry): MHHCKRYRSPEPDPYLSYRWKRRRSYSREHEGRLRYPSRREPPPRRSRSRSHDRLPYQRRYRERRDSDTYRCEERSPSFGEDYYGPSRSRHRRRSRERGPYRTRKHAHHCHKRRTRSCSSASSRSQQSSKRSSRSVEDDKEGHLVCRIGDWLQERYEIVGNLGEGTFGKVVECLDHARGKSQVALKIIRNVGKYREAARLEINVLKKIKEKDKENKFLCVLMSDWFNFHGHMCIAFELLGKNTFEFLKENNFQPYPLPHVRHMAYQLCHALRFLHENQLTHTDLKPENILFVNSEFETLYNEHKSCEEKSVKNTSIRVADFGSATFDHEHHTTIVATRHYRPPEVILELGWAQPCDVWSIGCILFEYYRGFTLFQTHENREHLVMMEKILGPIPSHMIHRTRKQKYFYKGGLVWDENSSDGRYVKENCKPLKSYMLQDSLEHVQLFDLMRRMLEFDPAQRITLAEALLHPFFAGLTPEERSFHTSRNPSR
T1 sequence (P49760 whole entry): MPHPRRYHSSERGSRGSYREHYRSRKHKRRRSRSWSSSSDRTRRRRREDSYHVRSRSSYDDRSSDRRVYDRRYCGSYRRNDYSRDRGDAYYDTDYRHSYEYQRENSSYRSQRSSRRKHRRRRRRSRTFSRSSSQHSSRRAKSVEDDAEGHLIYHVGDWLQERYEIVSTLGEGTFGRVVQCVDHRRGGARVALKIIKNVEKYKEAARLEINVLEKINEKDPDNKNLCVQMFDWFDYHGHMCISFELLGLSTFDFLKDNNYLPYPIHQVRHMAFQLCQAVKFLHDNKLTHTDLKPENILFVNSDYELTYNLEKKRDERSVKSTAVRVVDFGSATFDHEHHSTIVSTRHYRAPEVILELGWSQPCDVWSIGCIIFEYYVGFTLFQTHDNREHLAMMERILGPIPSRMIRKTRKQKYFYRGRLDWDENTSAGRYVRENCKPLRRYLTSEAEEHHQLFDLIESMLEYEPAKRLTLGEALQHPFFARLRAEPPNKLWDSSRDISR
T8 sequence (Q16816 whole entry): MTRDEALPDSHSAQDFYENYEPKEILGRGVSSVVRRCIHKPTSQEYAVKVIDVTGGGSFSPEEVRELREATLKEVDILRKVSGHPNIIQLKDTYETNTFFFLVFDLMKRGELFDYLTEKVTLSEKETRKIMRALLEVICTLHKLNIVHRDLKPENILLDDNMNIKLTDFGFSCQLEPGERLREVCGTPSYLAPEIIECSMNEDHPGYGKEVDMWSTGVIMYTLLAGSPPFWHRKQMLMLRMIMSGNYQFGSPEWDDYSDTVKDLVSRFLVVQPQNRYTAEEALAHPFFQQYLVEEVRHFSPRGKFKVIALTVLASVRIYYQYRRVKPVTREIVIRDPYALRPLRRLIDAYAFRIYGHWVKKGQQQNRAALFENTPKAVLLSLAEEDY
T3 sequence (P48730 whole entry): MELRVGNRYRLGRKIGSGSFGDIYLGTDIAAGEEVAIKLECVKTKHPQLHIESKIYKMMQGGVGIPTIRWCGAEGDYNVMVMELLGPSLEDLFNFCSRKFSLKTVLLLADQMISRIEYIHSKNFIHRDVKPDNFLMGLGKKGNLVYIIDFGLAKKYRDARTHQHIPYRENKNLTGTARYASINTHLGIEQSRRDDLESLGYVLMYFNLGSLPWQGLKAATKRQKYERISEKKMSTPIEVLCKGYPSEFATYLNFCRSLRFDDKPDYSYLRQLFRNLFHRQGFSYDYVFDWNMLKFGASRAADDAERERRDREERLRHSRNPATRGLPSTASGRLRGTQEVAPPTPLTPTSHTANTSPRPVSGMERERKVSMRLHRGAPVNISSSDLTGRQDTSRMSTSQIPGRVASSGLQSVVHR

As for `CCNc1nc(Nc2ccc(S(=O)(=O)N3CCC(N4CCOCC4)CC3)cc2OC)nc2[nH]cc(C(F)(F)F)c12` [Example 158, N^4-ethyl-N^2-(2-methoxy-4-((4-morpholinopiperidin-1-yl)sulfonyl)phenyl)-5-(trifluoromethyl)-7H-pyrrolo[2,3-d]pyrimidine-2,4-diamine 2,2,2-trifluoroacetate], the remaining binding at 1 µM turned out to be 22% on CLK2; 11% on CLK3; 5.3% at CSNK1D; 3.3% at CSNK1E; 0.75% on DYRK1A; 0.8% at DYRK1B. In addition, the remaining binding at 1 µM turned out to be 21% at GAK, 25% on PHKG1, 3% on PYK2 and 0% at LRRK2.
On to `CNc1nc(Nc2ccc(P3(=O)CCN(C4CC4)CC3)cc2OC)nc2[nH]cc(C(F)(F)F)c12` [Example 411, 1-cyclopropyl-4-(3-methoxy-4-((4-(methylamino)-5-(trifluoromethyl)-7H-pyrrolo[2,3-d]pyrimidin-2-yl)amino)phenyl)-1,4-azaphosphinane-4-oxide], for which the remaining binding at 1 µM on CLK2 came out at 0%; on CLK3, 21%; on CSNK1D, 14%; on CSNK1E, 31%; on DYRK1A, 0.2%; on DYRK1B, 4.5%. Further, the remaining binding at 1 µM on GAK stood at 2.4%; at PHKG1, 17%; at PYK2 it was 13%; on LRRK2 it was 1.9%.
For `CCCNc1nc(Nc2ccc(S(=O)(=O)N3CCC(N4CCOCC4)CC3)cc2OC)nc2[nH]cc(C(F)(F)F)c12` [Example 161, N^2-(2-methoxy-4-((4-morpholinopiperidin-1-yl)sulfonyl)phenyl)-N^4-propyl-5-(trifluoromethyl)-7H-pyrrolo[2,3-d]pyrimidine-2,4-diamine], the remaining binding at 1 µM on CLK2 came out at 3.9%; on CLK3 it was 11%; on CSNK1D, 15%; at CSNK1E, 12%; at DYRK1A it was 2%; at DYRK1B it was 0%. In addition, the remaining binding at 1 µM at GAK was determined as 4%; at PHKG1 it was 24%; at PYK2, 1.3%; on LRRK2 it was 1%.
On to `CNc1nc(Nc2ccc(S(=O)(=O)N3CCC(N4CCOCC4)CC3)cc2OC)nc2[nH]cc(C(F)(F)F)c12` [Example 157, N^2-(2-methoxy-4-((4-morpholinopiperidin-1-yl)sulfonyl)phenyl)-N^4-methyl-5-(trifluoromethyl)-7H-pyrrolo[2,3-d]pyrimidine-2,4-diamine 2,2,2-trifluoroacetate], for which the remaining binding at 1 µM at CLK2 came out at 2.9%; at CLK3 it was 3.7%; on CSNK1D it was 2.9%; on CSNK1E it was 2.4%; on DYRK1A, 0.05%; at DYRK1B, 0%. Moreover, the remaining binding at 1 µM on GAK was found to be 4.2%; on PHKG1, 7.8%; at PYK2, 5.5%; on LRRK2, 0.7%.
`CNc1nc(Nc2ccc(C(=O)N3CCC(N4CCOCC4)CC3)c3c2OCCO3)nc2[nH]cc(C(F)(F)F)c12` [Example 238, (8-((4-(methylamino)-5-(trifluoromethyl)-7H-pyrrolo[2,3-d]pyrimidin-2-yl)amino)-2,3-dihydrobenzo[b][1,4]dioxin-5-yl)(4-morpholinopiperidin-1-yl)methanone]: the remaining binding at 1 µM at CLK2 is 0.65%; at CLK3 it was 7.8%; on CSNK1D, 16%; at CSNK1E, 32%; on DYRK1A, 0.25%; on DYRK1B, 0%. For the same compound, the remaining binding at 1 µM on GAK is 3.1%; at PHKG1, 3.6%; on PYK2, 5.2%; on LRRK2, 0.45%.
As for `C=CCNc1nc(Nc2ccc(S(=O)(=O)N3CCC(N4CCOCC4)CC3)cc2OC)nc2[nH]cc(C#N)c12` [Example 361, 4-(allylamino)-2-((2-methoxy-4-((4-morpholino-piperidin-1-yl)sulfonyl)phenyl)amino)-7H-pyrrolo[2,3-d]pyrimidine-5-carbonitrile], the remaining binding at 1 µM at CLK2 amounted to 3.9%; at CLK3, 21%; on CSNK1D it was 3.9%; on CSNK1E it was 0.05%; at DYRK1A, 2.6%; on DYRK1B it was 6.1%. The remaining binding at 1 µM at GAK was 2.7%; on PHKG1 it was 9.7%; on PYK2, 2.2%; on LRRK2, 0%.
Consider `O=C(c1ccc(Nc2nc(C3CC3)c3c(C(F)(F)F)c[nH]c3n2)c2c1OCCO2)N1CCC(N2CCOCC2)CC1` [Example 228, (8-((4-cyclopropyl-5-(trifluoromethyl)-7H-pyrrolo[2,3-d]pyrimidin-2-yl)amino)-2,3-dihydrobenzo[b][1,4]dioxin-5-yl)(4-morpholinopiperidin-1-yl)methanone], for which the remaining binding at 1 µM at CLK2 came to 5.5%; at CLK3, 25%; at CSNK1D it was 45%; on CSNK1E, 40%; at DYRK1A, 0.5%; on DYRK1B, 0%. For the same compound, the remaining binding at 1 µM was 3% at GAK, 30% at PHKG1, 22% at PYK2 and 0.3% at LRRK2.
